Measured values taken from patent publication US9857359B2, “Methods for determining drug efficacy using cereblon-associated proteins” (CELGENE CORPORATION, priority 2012, dated 2018).

Legend:
Ikaros = Ikaros (Homo sapiens, UniProt Q13422); experiment: Ikaros western blots in MM cells, T cells and B cells; format: cell-based; design: endogenous in cells; host or cells: U266, DF15 (and other MM lines), primary CD3+ T cells, primary CD19+ B cells; settings: for Reduction of Ikaros levels compared with other treatment compounds for MM: MM cells
Description: U266 cells were obtained from ATCC (American Type Culture Collection, Manassas, Va., USA). DF15 cells were obtained from John Shaughnessy (University of Arkansas, Little Rock, Ark., USA). CD19+ B cells were purchased from HemaCare BioResearch Products (Van Nuys, Calif.). Cells were grown in RPMI-1640 medium (Cellgro, Manassas, Va.) containing 10% (V/V) heat-inactivated fetal bovine serum (Gibco, Grand Island, N.Y., USA) supplemented with 2 mM glutamine. […] Primary T cells were isolated from human leukocytes (Blood Center of New Jersey, East Orange, N.J.) by centrifugation through FICOLL® centrifugation medium following the ROSETETTESEP™ protocol (Stem Cell Technologies, Vancouver, Canada). […] Dexamethasone (Sigma, St. Louis, Mo.), melphalan (Sigma, St. Louis, Mo.) and bortezomib (Selleck Chemicals, Houston, Tex.) treated was for 6 hours. The final DMSO concentration is 0.1%. Cells were pre-treated with 10 μM MG-132 (Calbiochem Biochemicals, Billerica, Mass.) for 30 minutes prior to drug addition. Cells were harvested, washed in PBS and cell lysates separated on SDS-PAGE gels (Bio-Rad, Hercules, Calif.). Membranes were immunoblotted with anti-Aiolos (Santa Cruz Biotechnology, Dallas, Tex.), anti-Ikaros (Millipore, Billerica, Mass.) and anti-Actin (Sigma, St. Louis, Mo.; or LI-COR Biosciences, Lincoln, Nebr.) and secondary antibodies (LI-COR Biosciences, Lincoln, Nebr.). The blots were analyzed on ODESSEY® imager (LI-COR Biosciences, Lincoln, Nebr.).
Cell lysates were separated on a 10% TGX SDS-PAGE gel (Bio-Rad) and blotted for Aiolos (Santa Cruz, sc-10198), Ikaros (Millipore, ABD16) and Actin (Sigma, AC15).

Aiolos = Aiolos expression in human whole blood by FACS assay; format: cell-based
Description: Pre-weighed test compound was dissolved in 100% DMSO to make 100 mM or 10 mM stock concentrations. The compound in 100% DMSO was diluted to 10 mM, 1 mM, 0.1 mM, 0.01 mM, 0.001 mM stock concentrations as appropriate. Compounds were directly added to heparinized human whole blood (1:1000 dilution) for final concentrations of 10 μM, 1 μM, or 0.1 μM as appropriate. Ten (10) ml of whole blood was transferred to a 50 mL conical tube and treated with test compound. The final DMSO concentration was 0.1%. The blood was incubated for 1.5 or 5 hours at 37° C., 5% CO2. After each time point, the blood was lysed/fixed, permeabilized, washed and stained with Aiolos as described below.
BD Lyse/Fix Buffer was diluted 5× with distilled (or deionized) water. The Lyse/Fix buffer was pre-warmed in a 37° C. water bath for 10 minutes before use. The cells were lyzed and fixed immediately by mixing 1 volume of whole blood with 20 volumes of 1× Lyse/Fix buffer (for the 1 mL of blood+compound, add 20 mL of 1× Lyse/Fix buffer) and mixed thoroughly by inverting the tube several times. The cell lyse/fix and blood mixture was incubated in a 37° C. water bath for 10 minutes. Cells were pelleted by centrifugation at 500×g for 5 minutes and removed the supernatant by aspiration. Cells were suspended with 5 mL of cold PBS, and then pelleted by centrifugation at 500×g for 5 minutes, and the supernatant was aspirated off. Two hundred (200) μL of PBS was added to cells. Cells were transferred to polystyrene U-bottom 96-well plates (BD, Cat. No. 353910) for use with the FACSCanto HTS. Cells were washed with 200 μL of cold PBS and spun at 500×g for 5 minutes, and the plate was flicked and gently dapped on a paper towel to remove excess buffer. The cells were resuspended and permeabilized by adding 200 μL of cold BD Perm/Wash Buffer I and incubated on ice for 30 minutes. The cells were pelleted by centrifugation at 500×g for 5 minutes and the buffer removed. The cells were washed once with 200 μL BD perm/wash buffer and repelleted, and the buffer was removed.
The cell pellet was resuspended in 40 μL of BD perm/wash buffer. Twenty (20) μL each of anti-CD3-PE, anti-CD20-APC, and anti-Aiolos Rabbit antibodies, or 20 μL of appropriate isotype controls, or 20 μL of 1:400 of normal Rabbit IgG (control for Aiolos) were added to the cells. The mixture was mixed thoroughly and incubated at room temperature for 45 minutes in the dark. The mixture was centrifuged and washed once with BD perm/wash buffer at 500×g for 5 minutes. The cell pellet was resuspended in 80 μL of BD perm/wash buffer, and 20 μL of secondary Goat Anti-Rabbit IgG AF488 antibody (at 1:400 dilution in Perm/Wash Buffer) was added, and the mixture was incubated at RT for 30 min in the dark. Secondary antibody was not added to the isotype controls. The mixture was washed once with 200 μL BD Stain Buffer and centrifuged at 500×g for 5 minutes, and the pelleted cells were resuspended in 200 μL of staining buffer. The cells were analyzed on the BD FACSCanto using the HTS platform. The cells were analyzed using the standard method. If the cells cannot be read right away, the plates were covered in foil to protect from light and stored at 4° C. for up to 2 days. Data analysis was carried out using FlowJo from Tree Star, Inc. to assess mean fluorescence intensity and percent inhibition of Aiolos in cell population.

[1] = 10 μM lenalidomide, 1 μM pomalidomide, U266, DF15 MM cells, primary CD3+ T cells, primary CD19+ B cells, cycloheximide treated U266
[2] = six MM cell lines (OPM-2, RPMI-8226, LP-1, U266, H929 and JJN3), various concentrations

Sequence of Ikaros (Q13422 whole entry): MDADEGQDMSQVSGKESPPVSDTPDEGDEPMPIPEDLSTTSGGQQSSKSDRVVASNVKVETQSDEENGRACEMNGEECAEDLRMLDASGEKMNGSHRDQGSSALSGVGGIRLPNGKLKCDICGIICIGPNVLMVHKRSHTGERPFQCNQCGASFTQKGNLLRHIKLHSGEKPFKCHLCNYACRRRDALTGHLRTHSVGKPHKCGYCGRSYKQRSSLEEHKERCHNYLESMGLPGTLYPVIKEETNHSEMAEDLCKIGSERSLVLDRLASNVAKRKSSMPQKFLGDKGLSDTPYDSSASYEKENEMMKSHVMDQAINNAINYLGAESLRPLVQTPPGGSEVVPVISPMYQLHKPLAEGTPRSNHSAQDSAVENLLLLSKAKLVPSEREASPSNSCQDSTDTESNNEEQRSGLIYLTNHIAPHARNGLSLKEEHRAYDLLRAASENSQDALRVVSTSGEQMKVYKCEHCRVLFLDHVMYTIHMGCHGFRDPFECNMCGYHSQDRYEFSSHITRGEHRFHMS

**Q.** How did the Ikaros expression (Ikaros; [1]) turn out when `Nc1cccc2c1C(=O)N(C1CCC(=O)NC1=O)C2=O` (centres unmarked) [pomalidomide, reference compound] was run?
**A.** The Ikaros expression was “reduced the expression of Aiolos and Ikaros”.

**Q.** And the “Reduction of Ikaros levels compared with other treatment compounds for MM” value (Ikaros)?
**A.** Its value is “unique to immunomodulatory compounds provided herein”.

**Q.** What about the Ikaros expression (Ikaros; [2]) of the same compound?
**A.** Its Ikaros expression is “significantly inhibited Aiolos and Ikaros expression”.

**Q.** `Nc1cccc2c1CN(C1CCC(=O)NC1=O)C2=O` (centres unmarked) [lenalidomide] was tested. Which Ikaros expression (Ikaros; [1]) did it give?
**A.** Its Ikaros expression is “reduced the expression of Aiolos and Ikaros”.

**Q.** What about the “Reduction of Ikaros levels compared with other treatment compounds for MM” value (Ikaros) of the same compound?
**A.** The value was “unique to immunomodulatory compounds provided herein”.

**Q.** And the Ikaros expression (Ikaros; [2])?
**A.** Its Ikaros expression is “significantly inhibited Aiolos and Ikaros expression”.

**Q.** Which “Aiolos expression in T and B cell populations” value (Aiolos; 1.5 hours after the treatment) does the source give for `O=C1CC[C@H](N2Cc3c(OCc4ccc(CN5CCOCC5)cc4)cccc3C2=O)C(=O)N1` [Compound B, 3-(4-((4-(morpholinomethyl)benzyl)oxy)-1-oxoisoindolin-2-yl)piperidine-2,6-dione] here?
**A.** The value was “inhibitory effect was observed in both T and B cell populations”.

**Q.** What about the “Aiolos expression in lymphocytes” value (Aiolos; 1.5 hours after the treatment) of the same compound?
**A.** Its value is “significantly inhibited the expression of Aiolos”.

**Q.** And the “Aiolos expression in non-lymphocytes” value (Aiolos; 1.5 hours after the treatment)?
**A.** Its value is “no significant effect was observed”.

**Q.** What about the “Aiolos expression in lymphocytes” value (Aiolos; 5 hour after the treatment) of the same compound?
**A.** The value was “the degree of inhibition was more significant than that observed at 1.5 hours”.

**Q.** Which results are given for `Cc1nc2cccc(N)c2c(=O)n1C1CCC(=O)NC1=O` (centres unmarked) [Compound A, 3-(5-amino-2-methyl-4-oxo-4H-quinazolin-3-yl)-piperidine-2,6-dione]?
**A.** Aiolos expression in T and B cell populations (Aiolos; 1.5 hours after the treatment): inhibitory effect was observed in both T and B cell populations; Aiolos expression in lymphocytes (Aiolos; 1.5 hours after the treatment): significantly inhibited the expression of Aiolos; Aiolos expression in non-lymphocytes (Aiolos; 1.5 hours after the treatment): no significant effect was observed; Aiolos expression in lymphocytes (Aiolos; 5 hour after the treatment): the degree of inhibition was more significant than that observed at 1.5 hours
